# According to patent US9067966B2, “Lupeol-type triterpene derivatives as antivirals” (priority 2009, dated 2015):
# Like-named read-outs stand apart in the source and are kept apart here.
# What was measured:
# HIV-193IN 101 = assay: P24 assay for anti-HIV activity in Sup-T1 cells; format: cell-based, HIV-1; details: Human immunodeficiency virus 1, SUP-T1, read-out: Percent Inhibition of HIV-193IN 101 Replication in Sup-T1 Cells (table title: Percent Viability)
# Method: Viral p24 is measured after about 72 hours of post infection in presence of drugs using an ABL p24 ELISA kit. 0.5 million cells/well are taken into the 24 well plates and added increasing concentrations of drugs. 1 ng/ml of HIV-1 virus was added to each well and incubated for overnight at 37° C. (37° C. and 5% CO2). After about 16 hours incubation the media was changed and fresh media was added and cultured for about 72 hours. P24 was quantified at the 4th day of post-infection using an ABL kit according to manufacturer's instructions.
# Percent Inhibition of HIV-193IN 101 Replication in Sup-T1 Cells
# [1] = Cytotoxicity on Molt-4 cells (MTT); format: cell-based; details: human, read-out: Percent Viability; for viability at 24 h, 0.1 µM: concentration 0.1 μM; for viability at 24 h, 1 µM: concentration 1 μM; for viability at 24 h, 10 µM: concentration 10 μM; for viability at 24 h, 100 µM: concentration 100 μM
# Method: 10 mM stock solution of the test compound was made in DMSO and stored at −20° C. for further use. During the day of the experiment working stocks were made by serial dilution with DMSO. The final concentration of DMSO in the test media is 1%.
# MTT assay was performed in a 96 well format using Molt-4 cell line (Human acute T lymphoblastic leukemia)—a suspension culture maintained in RPMI with 10% FBS media.
# Approximately 0.03 million cells are seeded/well and the plate was incubated for 16 hours. Following incubation, cells are treated with a test compound at a defined concentration in triplicates and incubation was continued for another 24 hours. At the end of the incubation, MTT reagent was added (10 μl, 5 mg/ml stock) to the plate and continued incubation for additional 4 hours. Reaction was terminated by addition of 200 μl 0.1N acidic propanol. The colour developed was measured by a plate reader using 590 nm filters. The percent viability was calculated by comparing mean absorbance value of sample with the control (Vehicle alone).
# [2] = Cytotoxicity on Sup-T1 cells (MTT); format: cell-based; details: human, read-out: Percent Viability; for viability at 0.001 µM: concentration 1 nM; for viability at 0.1 µM: concentration 100 nM; for viability at 1 µM: concentration 1 μM; for viability at 100 µM: concentration 100 μM; for viability at 1 mM: concentration 1 mM
# Method: Reduction of 3-(4,5-dimethylthiozol-2-yl)-2,5-diphenyltetrazolium bromide (MTT, sigma) is chosen as an optimal end point of cell viability measurement (Mosmann, 1983; Cole, 1986; Alley et al., 1988) […] (0.2×10^6 cells per well) are seeded in 96-well plates. Increasing concentrations of compound are added to the cells and incubated at 37° C. for about 14 hours in a CO2 Incubator with 5% CO2. The media is replaced with a fresh growth medium along with 20 μL of 5 mg/ml 3-(4,5-dimethylthiazol-2-yl)-2,5-diphenyltetrazolium bromide (MTT, Sigma). After incubation for about 4 hours in a humidified atmosphere, the media is removed and 200 μL of 0.1 N acidic isopropyl alcohol is added to the wells to dissolve the MTT-formazan crystals. The absorbance is recorded at 570 nm, immediately after the development of purple colour. Each experiment is conducted in triplicate and the data are represented as average, with standard deviation. Percent viability of the cells is computed with reference to the absorbance of reduced MTT in the experiments conducted in absence of any compound.
# HIV-1 strain 92-HT599 = assay: Anti HIV-1 p24 assay, strain 92-HT599 in MT2 cells; format: cell-based; details: Human immunodeficiency virus 1, MT2 cells, read-out: Percent inhibition
# Method: MT2 cells were infected with the HIV-1 strain 92-HT599 (10TCID50/30000 cells). The infected cells are plated at the concentration of 30000 cells per well in a 96 well assay micro plate. A test compound was added to the micro plate in a defined format with the final concentration of DMSO (vehicle) being not more than 1%. Incubation was carried out in a CO2 incubator for 96 hours for viral infection. At the end of incubation period an aliquot from each well was taken for p24 estimation. The quantitation of p24 is an index for antiviral activity of the compound. Percent inhibition was calculated with reference to control values (vehicle).
# P24 estimation was carried out using an Advance Biosciences kit as per the procedure as detailed by supplier.
# […] was made by dissolving test compound in DMSO. Subsequent dilutions were made with DMSO to make necessary working stocks (100×).
# HIV-1 strain CNHN24 = assay: Anti-HIV-1 luciferase indicator assay in MT2 cells, CNHN24; format: cell-based; details: for TI / Safety Index (CC50/IC50): MT2 cells
# Method: (§1) Compound was dissolved in DMSO to make 30 mM stock. Then the 30 mM stock is further diluted to 4 mM using DMSO. The 4 mM stock was used as the top concentration to carry out an 11-point, 3-fold dilution scheme using DMSO in a 96-well plate to make the compound dose plate. Compounds in the dose plate were transferred to a new 96-well plate (working plate) containing PBS with 0.05% pluronic acid. From this working plate, the compound solution was transferred to the 384-well assay plates.
# (§2) Control compounds used in compound control wells were prepared and added to assay plates individually.
# (§3) MT2 cells were mixed with HIV-1 strain NL4-3 (or IIIB, or CNHN24) and the cell/virus mixture was added to the aforementioned antivirus assay plates. After incubation in a 37° C., 5% CO2 incubator, the supernatant from the assay plate was transferred to a new 384-well plate containing the indicator cells with a fire fly luciferase gene under HIV-1 LTR control. The expression level of luciferase was related to HIV-1 infectivity and was measured by Bright-Glo kit (Promega).
# (§4) Therapeutic index (TI) was determined by taking ratio of CC50/IC50
# HIV-1 strain IIIB = assay: Anti-HIV-1 luciferase indicator assay in MT2 cells, IIIB; format: cell-based; details: for IC50: Human immunodeficiency virus 1, IIIB; for TI / Safety Index (CC50/IC50): MT2 cells
# Method: as §1, §2, §3, §4
# in vitro = format: cell-based; details: human, CC50
# Method: as §1
# For cytotoxicity assay the same amount of MT2 cells as in antivirus assay but without HIV-1 virus were added to the cytotoxicity plates. The cytotoxicity was measured by Cell Titer-Glo cell viability assay (Promega).
# HIV-1 strain NL4-3 = assay: Anti-HIV-1 luciferase indicator assay in MT2 cells, NL4-3; format: cell-based; details: viral strain NL4-3; for IC50: Human immunodeficiency virus 1, NL43, MT2, MT2 cells, read-out: IC50; for TI / Safety Index (CC50/IC50): MT2 cells
# Method: as §1, §2, §3, §4
# [3] = Human immunodeficiency virus 1, MT2, MT2 cells, viral strain CNHN24, read-out: IC50
# [4] = MT2, MT2 cells, viral strain II B, read-out: IC50
smiles,measurement,setting,value
"C=C(C)[C@@H]1CC[C@]2(C(=O)O)CC[C@]3(C)C(CC[C@@H]4[C@@]5(C)[C@@H](C(=O)O)[C@H](OC(=O)CC(C)(C)C(=O)O)C(C)(C)[C@@H]5CC[C@]43C)C12 (stereo partly drawn) [Example 6, (1R,2S,3aR,5aR,5bR,7aS,10R,12aR,12bR)-2-(3-carboxy-3-methylbutanoyloxy)-3,3,5a,5b,12b-pentamethyl-10-(prop-1-en-2-yl)icosahydrodicyclopenta[a,i]phenanthrene-1,7a-dicarboxylic acid]",inhibition at 0.0001 µM,HIV-193IN 101,17.5%
same,inhibition at 0.001 µM,HIV-193IN 101,15.2%
same,inhibition at 0.1 µM,HIV-193IN 101,21.1%
same,inhibition at 1 µM,HIV-193IN 101,32.1%
same,inhibition at 100 µM,HIV-193IN 101,34.9%
same,"viability at 24 h, 0.1 µM",[1],103%
same,"viability at 24 h, 1 µM",[1],99%
same,"viability at 24 h, 10 µM",[1],82.8%
same,"viability at 24 h, 100 µM",[1],7.27%
same,viability at 0.001 µM,[2],86.9%
same,viability at 0.1 µM,[2],82.7%
same,viability at 1 µM,[2],88.6%
same,viability at 100 µM,[2],88.8%
same,viability at 1 mM,[2],23.1%
"C=C(C)[C@@H]1CC[C@]2(C(=O)N[C@H]3C[C@@H](C(=O)N4CCCC4)C3(C)C)CC[C@]3(C)[C@H](CC[C@@H]4[C@@]5(C)CC[C@H](OC(=O)CC(C)(C)C(=O)O)C(C)(C)[C@@H]5CC[C@]43C)[C@@H]12 [Example 15, 4-((1R,3aS,5aR,5bR,7aR,9S,11aR,11bR,13aR,13bR)-3a-((1S,3R)-2,2-dimethyl-3-(pyrrolidine-1-carbonyl)cyclobutylcarbamoyl)-5a,5b,8,8,11a-pentamethyl-1-(prop-1-en-2-yl)icosahydro-1H-cyclopenta[a]chrysen-9-yloxy)-2,2-dimethyl-4-oxobutanoic acid]",inhibition at 0.1 µM,"HIV-1 strain 92-HT599; HIV-1 92-HT599, p24, concentration 0.1 μM",86%
same,inhibition at 1 µM,"HIV-1 strain 92-HT599; HIV-1 92-HT599, p24, concentration 1 μM",98%
same,melting point,,110 to 114 °C
"C=C(C)[C@@H]1CC[C@]2(C(=O)O)CC[C@]3(C)[C@H](CC[C@@H]4[C@@]5(C)CC[C@H](OC(=O)[C@@H]6C[C@H](C(=O)O)C6(C)C)C(C)(C)[C@@H]5CC[C@]43C)[C@@H]12 [Example 4, (1R,3aS,5aR,5bR,7aR,9S,11aR,11bR,13aR,13bR)-9-((1R,3S)-3-carboxy-2,2-dimethylcyclobutanecarbonyloxy)-5a,5b,8,8,11a-pentamethyl-1-(prop-1-en-2-yl)icosahydro-1H-cyclopenta[a]chrysene-3a-carboxylic acid]",inhibition at 0.0001 µM,HIV-193IN 101,13%
same,inhibition at 0.001 µM,HIV-193IN 101,17.7%
same,inhibition at 0.1 µM,HIV-193IN 101,23.5%
same,inhibition at 1 µM,HIV-193IN 101,42.4%
same,inhibition at 100 µM,HIV-193IN 101,87.5%
same,"viability at 24 h, 0.1 µM",[1],101%
same,"viability at 24 h, 1 µM",[1],98.7%
same,"viability at 24 h, 10 µM",[1],102%
same,"viability at 24 h, 100 µM",[1],7.03%
same,viability at 0.001 µM,[2],85.8%
same,viability at 0.1 µM,[2],86.8%
same,viability at 1 µM,[2],85.2%
same,viability at 100 µM,[2],39%
same,viability at 1 mM,[2],26.2%
same,IC50,HIV-1 strain CNHN24; [3],218 nM
same,TI / Safety Index (CC50/IC50),HIV-1 strain CNHN24; viral strain CNHN24,91
same,IC50,HIV-1 strain IIIB; [4],364 nM
same,TI / Safety Index (CC50/IC50),HIV-1 strain IIIB; viral strain II B,54
same,CC50,in vitro,20000 nM
same,IC50,HIV-1 strain NL4-3,201 nM
same,TI / Safety Index (CC50/IC50),HIV-1 strain NL4-3,91
C=C(C)[C@@H]1CC[C@]2(C(=O)N[C@@H]3C[C@H](C(=O)OCc4ccccc4)C3(C)C)CC[C@]3(C)[C@H](CC[C@@H]4[C@@]5(C)CC[C@H](OC(=O)CC(C)(C)C(=O)O)C(C)(C)[C@@H]5CC[C@]43C)[C@@H]12,melting point,,64.7 to 100.4 °C
C=C(C)[C@@H]1CC[C@]2(C(=O)N[C@H]3C[C@@H](C(=O)N4CCCCC4)C3(C)C)CC[C@]3(C)[C@H](CC[C@@H]4[C@@]5(C)CC[C@H](OC(=O)[C@@H]6C[C@H](C(=O)O)C6(C)C)C(C)(C)[C@@H]5CC[C@]43C)[C@@H]12,melting point,,257.7 to 269 °C
"C=C(C)[C@@H]1CC[C@]2(C(=O)N[C@@H]3CC[C@H](CN4CCC(Cc5ccccc5)CC4)C3)CC[C@]3(C)[C@H](CC[C@@H]4[C@@]5(C)CC[C@H](OC(=O)CC(C)(C)CC(=O)O)C(C)(C)[C@@H]5CC[C@]43C)[C@@H]12 [Example 94, 5-((1R,3aS,5aR,5bR,7aR,9S,11aR,11bR,13aR,13bR)-3a-((1R,3S)-3-((4-benzylpiperidin-1-yl)methyl)cyclopentylcarbamoyl)-5a,5b,8,8,11a-pentamethyl-1-(prop-1-en-2-yl)icosahydro-1H-cyclopenta[a]chrysen-9-yloxy)-3,3-dimethyl-5-oxopentanoic acid]",IC50,HIV-1 strain CNHN24; [3],26 nM
same,TI / Safety Index (CC50/IC50),HIV-1 strain CNHN24; viral strain CNHN24,153
same,IC50,HIV-1 strain IIIB; [4],19 nM
same,TI / Safety Index (CC50/IC50),HIV-1 strain IIIB; viral strain II B,210
same,CC50,in vitro,4000 nM
same,IC50,HIV-1 strain NL4-3,23 nM
same,TI / Safety Index (CC50/IC50),HIV-1 strain NL4-3,173
"C=C(C)[C@@H]1CC[C@]2(C(=O)N[C@@H]3C=C[C@H](CN4CCOCC4)C3)CC[C@]3(C)[C@H](CC[C@@H]4[C@@]5(C)CC[C@H](OC(=O)CC(C)(C)C(=O)O)C(C)(C)[C@@H]5CC[C@]43C)[C@@H]12 [Example 95, 2,2-dimethyl-4-oxo-4-((1R,3aS,5aR,5bR,7aR,9S,11aR,11bR,13aR,13bR)-5a,5b,8,8,11a-pentamethyl-3a-((1S,4R)-4-(morpholinomethyl)cyclopent-2-enylcarbamoyl)-1-(prop-1-en-2-yl)icosahydro-1H-cyclopenta[a]chrysen-9-yloxy)butanoic acid]",IC50,"HIV-1 strain CNHN24; Human immunodeficiency virus 1, MT2",3 nM
same,IC50,HIV-1 strain IIIB; MT2,1 nM
same,TI / Safety Index (CC50/IC50),HIV-1 strain IIIB; viral strain II B,20000
same,CC50,in vitro,> 20000 nM
same,IC50,HIV-1 strain NL4-3,4 nM
same,TI / Safety Index (CC50/IC50),HIV-1 strain NL4-3,5000
